What was measured:
[1] = xn = mol fraction of the nth substance listed; details: Maximal bubble pressure
[2] = Maximal bubble pressure

COS(=O)(=O)[O-].Cn1cc[n+](C)c1 [1,3-dimethylimidazolium methylsulfate] + O
[1]
Details | surface tension liquid-gas [mN/m]
297 K, x1 = 0.008 | 70.6
297.1 K, x1 = 0.025 | 69.5
297.3 K, x1 = 0.055 | 68.2
297.6 K, x1 = 0.093 | 67.3
297.6 K, x1 = 0.141 | 66.4
297.7 K, x1 = 0.183 | 65.7
298 K, x1 = 0.222 | 65.3
298.1 K, x1 = 0.261 | 64.7
298.1 K, x1 = 0.292 | 64.7

CCCCn1cc[n+](C)c1.CS(=O)(=O)[O-] [1-butyl-3-methylimidazolium methanesulfonate] + O
[1]
Details | surface tension liquid-gas [mN/m]
297.5 K, x1 = 0.004 | 65.1
297.7 K, x1 = 0.014 | 62.9
297.8 K, x1 = 0.026 | 59.6
297.8 K, x1 = 0.064 | 53.6
298 K, x1 = 0.115 | 50.3
298 K, x1 = 0.256 | 45.9
298.2 K, x1 = 0.173 | 48.2
298.2 K, x1 = 0.24 | 46.7
298.2 K, x1 = 0.291 | 45.1
304.7 K, x1 = 0.005 | 66.3
304.8 K, x1 = 0.177 | 47.9
304.9 K, x1 = 0.011 | 63.5
305.1 K, x1 = 0.109 | 50.8
305.1 K, x1 = 0.141 | 49.5
305.1 K, x1 = 0.16 | 48.5
305.2 K, x1 = 0.017 | 61.3
305.2 K, x1 = 0.08 | 52.4
305.3 K, x1 = 0.052 | 55.3
305.4 K, x1 = 0.027 | 59.2
312.2 K, x1 = 0.092 | 51.4
312.2 K, x1 = 0.184 | 47.8
312.3 K, x1 = 0.145 | 49.4
312.4 K, x1 = 0.069 | 53.2
312.6 K, x1 = 0.005 | 65.3
312.6 K, x1 = 0.019 | 60.3
312.8 K, x1 = 0.01 | 62.9
312.8 K, x1 = 0.041 | 56.3
318.1 K, x1 = 0.339 | 44.2
318.3 K, x1 = 0.259 | 45.5
318.7 K, x1 = 0.165 | 47.7
320.1 K, x1 = 0.034 | 56.1
320.1 K, x1 = 0.083 | 51.4
320.8 K, x1 = 0.023 | 58.2
321.3 K, x1 = 0.013 | 61
321.8 K, x1 = 0.004 | 64.8

CCn1cc[n+](C)c1.CS(=O)(=O)[O-] [1-ethyl-3-methylimidazolium methanesulfonate] + O
[1]
Details | surface tension liquid-gas [mN/m]
300 K, x1 = 0.002 | 72.1
300 K, x1 = 0.03 | 69.8
300.1 K, x1 = 0.025 | 70.4
300.2 K, x1 = 0.004 | 71.6
300.2 K, x1 = 0.006 | 71.4
300.3 K, x1 = 0.01 | 71.1
300.4 K, x1 = 0.015 | 70.7
300.4 K, x1 = 0.019 | 70.5
301 K, x1 = 0.065 | 67.9
301.2 K, x1 = 0.274 | 60.7
301.3 K, x1 = 0.002 | 71.4
301.3 K, x1 = 0.004 | 70.9
301.3 K, x1 = 0.007 | 70.4
301.3 K, x1 = 0.013 | 69.8
301.3 K, x1 = 0.019 | 69.2
301.3 K, x1 = 0.026 | 68.8
301.3 K, x1 = 0.032 | 68.4
301.3 K, x1 = 0.376 | 59.2
301.4 K, x1 = 0.01 | 70.1
301.7 K, x1 = 0.112 | 65.6
301.7 K, x1 = 0.485 | 58.1
302.4 K, x1 = 0.08 | 66
302.7 K, x1 = 0.133 | 63.5
302.7 K, x1 = 0.181 | 62.9
302.9 K, x1 = 0.199 | 61.2
303.2 K, x1 = 0.474 | 57.3
303.3 K, x1 = 0.388 | 57.7
303.8 K, x1 = 0.284 | 58.7

CCCCCCn1cc[n+](C)c1.[Cl-] [1-hexyl-3-methylimidazolium chloride] + O
[1]
Details | surface tension liquid-gas [mN/m]
297.2 K, x1 = 0.003 | 61.8
297.4 K, x1 = 0.009 | 55.2
297.4 K, x1 = 0.02 | 50.5
297.6 K, x1 = 0.045 | 47.6
297.7 K, x1 = 0.013 | 52.8
297.8 K, x1 = 0.073 | 46
297.9 K, x1 = 0.121 | 43.8
298 K, x1 = 0.092 | 45
298.2 K, x1 = 0.143 | 43.2

O [water]
[2]
Details | surface tension liquid-gas [mN/m]
296.8 K | 71.1
297 K | 71.9
297.7 K | 70.9
300 K | 71.6
301.2 K | 71.4
304.3 K | 70.7
312.4 K | 69.4
321.3 K | 68.1

O [water] + CCCCCCn1cc[n+](C)c1.[Cl-]
Details | surface tension liquid-gas [mN/m]
[1], 297.7 K, x2 = 0 | 70.9

O [water] + CCCCn1cc[n+](C)c1.CS(=O)(=O)[O-]
[1], x2 = 0
Details | surface tension liquid-gas [mN/m]
297 K | 71.9
304.3 K | 70.7
312.4 K | 69.4
321.3 K | 68.1

O [water] + CCn1cc[n+](C)c1.CS(=O)(=O)[O-]
[1], x2 = 0
Details | surface tension liquid-gas [mN/m]
300 K | 71.6
301.2 K | 71.4

O [water] + COS(=O)(=O)[O-].Cn1cc[n+](C)c1
Details | surface tension liquid-gas [mN/m]
[1], 296.8 K, x2 = 0 | 71.1
